Measured values published in patent US20120101163A1, “COMPOSITION FOR INHIBITING CANCER METASTASIS” (TAIPEI MEDICAL UNIVERSITY, priority 2010, published 2012).

What was measured:
[1] = test system: human umbilical vein endothelial cells; experiment: Cell viability assay of human umbilical vein endothelial cells; type: cell-based; details: 24 hours
Protocol: A medium in a culturing plate containing cells grown covering the whole bottom of the culturing plate, was removed. The cells were washed with 10 ml of PBS, and then suspended and mixed well with 10 ml of medium (a part of the cells need to be suspended with Trypsin-EDTA buffer). The numbers of the cells were calculated by a hemocytometer, and the cells were diluted to an appropriate cell concentration and added into the wells of a 24 well culturing plate by an amount of 500 μl/well. The 24 well culturing plates were placed in an incubator at 37° C. in a humidified atmosphere containing 5% CO2. After the cells were attached onto the bottom of the wells, the medium in each well was removed, and fresh mediums with different concentrations of a test drug were added into wells, respectively (if the cells were suspension cells, the fresh medium may be added into the wells, directly). Then, the 24 well culturing plates were placed in an incubator at 37° C. in a humidified atmosphere containing 5% CO2 for 24 hours. After that, an upper medium in each well was removed. The cells were washed with a PBS buffer twice, and then an MTT solution which was prepared with a medium was added to each well. After the 24 well culturing plates were placed in an incubator at 37° C. for reacting 4-6 hours, an upper medium in each well was removed, and 100 μl of DMSO was added to each well to solubilize the formazan precipitates. After that, an ELISA reader was used to determine the absorbance for each well at 600 nm.
After human umbilical vein endothelial cells were treated with the different concentrations of L-Aspartic acid β-hydroxamate (CH) and different concentrations of L-Glutamic acid γ-hydroxamate (DH) for 24 hours, respectively, the cell viability assays were performed to the treated human umbilical vein endothelial cells and the angiogenesis conditions of the human umbilical vein endothelial cells were recorded. The results of the cell viability assays are shown as FIGS. 13 (A) and 14 (A). Photographs for the human umbilical vein endothelial cells treated with L-Aspartic acid β-hydroxamate (CH) and human umbilical vein endothelial cells treated with L-Glutamic acid γ-hydroxamate (DH) are shown as FIGS. 13 (B) and 14 (B), respectively.

[2] = test system: human umbilical vein endothelial cells; experiment: Tube formation assay (angiogenesis); type: cell-based
Protocol: 13. Tube Formation Assay (Malinda et al., 1999)
1μ-Slide Angiogenesis ibiTreat chambers were coated with 10 μl Matrigel™ Mixtrix and placed in an incubator at 37° C. for 1 hour. 40 μl of a 3×10^5 cells/ml cell suspension was added to each chamber and left still for 20 minutes to let the cells attach to the chamber. After that, the medium in each chamber was removed. Fresh mediums with different concentrations of a test drug were added to the chambers, respectively and placed in an incubator at 37° C. After 18 hours, the angiogenesis appearance in each chamber was observed and photographed for recording.

[3] = test system: matrix metalloproteinase-2; experiment: Gelatin gel zymography of PMA-induced HT 1080 cells, MMP-2 activity; type: cell-based, Human; details: HT 1080 cells, 0.4, 0.8, 1.2 and 1.6 mM, 24 hours
Protocol: (§1) 4. Gelatin Gel Zymography (Shim et al., 2003; Park et al., 2005; Hwang et al., 2006)
(§2) HT 1080 cells with appropriate cell numbers were cultured in 60 mm culturing plates for 12 hours, respectively. After the cells were attached onto the bottom of the plate and formed a monolayer, the medium in the plate was removed. Fresh serum free mediums with different concentrations of a test sample were added to the plates, respectively, and 100 nM PMA was added to each plate to induce the cells to express great quantities of matrix metalloproteinase-2 and matrix metalloproteinase-9, and the plates were placed in a temperature of 37° C. for 24 hours. After centrifugation, each cultured supernatant were saved and mixed with SDS-sample buffer under the same protein contents which were then injected into a 10% SDS-polyacrylamide gel (containing 1 mg/ml gelatin) and then electrophoresed. After the electrophoresis was completed, the gel was taken out and washed with 20 mM Tris-HCl containing 25% isopropanol three times; 10 minutes per time. Then the gel was equilibrated with 20 mM Tris-HCl for 30 minutes, and finally an incubate buffer (5 mM CaCl2 and 1 mM ZnCl2) was added to the gel and reacted with the gel overnight. Then the gel was stained with coomassie blue, and positions having matrix metalloproteinase activity of the gel presented a white color.

[4] = test system: matrix metalloproteinase-9; experiment: Gelatin gel zymography of PMA-induced HT 1080 cells, MMP-9 activity; type: cell-based, Human; details: HT 1080 cells, 0.4, 0.8, 1.2 and 1.6 mM, 24 hours
Protocol: as §1, §2

SMILES	cytotoxicity to human umbilical vein endothelial cells ([1]; 0.25 mM)	viability of human umbilical vein endothelial cells ([1]; 0.75 mM)	angiogenesis inhibition at 0.25 mM ([2]; 0.25 mM)	inhibition rate to angiogenesis ([2]; about 0.1-1.5 mM, stated as embodiment)	angiogenesis compared with the control group ([2]; increasing concentrations)	matrix metalloproteinase-2 inhibiting activity [3]	matrix metalloproteinase-9 inhibiting activity [4]
NC(CC(=O)NO)C(=O)O [CH, L-Aspartic acid β-hydroxamate]	no cytotoxicity	slight decreases	already had an effect of inhibiting angiogenesis	10-90%	significantly inhibited		
N[C@@H](CCC(=O)O)C(=O)O [D, L-Glutamic acid, reference compound]						no inhibiting effect	no inhibiting effect
